Laboratory results reported in patent publication US10428044B2, “3-amino-1,5,6,7-tetrahydro-4H-indol-4-ones” (Bayer Pharma Aktiengesellschaft, priority 2014, dated 2019).

Biological target: (recombinant) catalytic domain of human Bub1 (amino acids 704-1085) (Homo sapiens (Human), UniProt O43683)
Experiment: Bub1 kinase assay (TR-FRET)
Assay type: biochemical
Details: ATP 10 μM final, peptide substrate 1 μM final, 60 min at 22° C., read-out: Biological Assay: Bub1 kinase assay median IC50
Procedure, shortened: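 Compounds were serially diluted 1:3.4 from 2 mM DMSO stocks and incubated with the enzyme reaction for 60 min at 22° C. The reaction was stopped with EDTA, and biotinylated peptide phosphorylation was read by TR-FRET using Eu anti-mouse IgG, anti-phosphoserine antibody and streptavidin-XL665. IC50 was fitted by 4-parameter logistic to inhibition normalized to no-inhibitor and no-enzyme controls.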

(recombinant) catalytic domain of human Bub1 (amino acids 704-1085), sequence (O43683 704-1085): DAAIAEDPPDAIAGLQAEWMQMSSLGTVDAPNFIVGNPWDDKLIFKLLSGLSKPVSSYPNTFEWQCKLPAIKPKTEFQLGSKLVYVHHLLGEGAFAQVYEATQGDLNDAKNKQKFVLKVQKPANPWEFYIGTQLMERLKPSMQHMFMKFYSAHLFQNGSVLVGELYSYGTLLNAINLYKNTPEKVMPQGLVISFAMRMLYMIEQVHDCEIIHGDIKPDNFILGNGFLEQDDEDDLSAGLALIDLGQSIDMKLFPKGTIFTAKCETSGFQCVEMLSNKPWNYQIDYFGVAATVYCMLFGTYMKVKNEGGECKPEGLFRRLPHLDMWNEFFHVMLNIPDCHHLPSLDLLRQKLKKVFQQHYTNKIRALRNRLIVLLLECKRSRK

IC50 | Structure (SMILES)
9680 nM | CC1(C)CC(=O)c2c([nH]c(-c3cc(Cl)ncc3Cl)c2Nc2ccccc2)C1 [Example 215, 2-(2,5-dichloropyridin-4-yl)-6,6-dimethyl-3-(phenylamino)-1,5,6,7-tetrahydro-4H-indol-4-one]
> 20000 nM | CC1(C)CC(=O)c2c([nH]c(-c3cc(Cl)nc(Cl)c3)c2Nc2ccccc2)C1 [Example 216, 2-(2,6-dichloropyridin-4-yl)-6,6-dimethyl-3-(phenylamino)-1,5,6,7-tetrahydro-4H-indol-4-one]
> 20000 nM | O=C1CCCc2[nH]c(-c3cc(Cl)nc(Cl)c3)c(Nc3ccccc3)c21 [Example 217, 2-(2,6-dichloropyridin-4-yl)-3-(phenylamino)-1,5,6,7-tetrahydro-4H-indol-4-one]
906 nM | O=C1CCCc2[nH]c(-c3cc(F)ncc3F)c(Nc3ccccc3)c21 [Example 218, 2-(2,5-difluoropyridin-4-yl)-3-(phenylamino)-1,5,6,7-tetrahydro-4H-indol-4-one]
12.2 nM | CC1(C)CC(=O)c2c([nH]c(-c3ccnc(Cl)c3F)c2Nc2ccccc2)C1 [Example 219, 2-(2-chloro-3-fluoropyridin-4-yl)-6,6-dimethyl-3-(phenylamino)-1,5,6,7-tetrahydro-4H-indol-4-one]
1400 nM | CC1(C)CC(=O)c2c([nH]c(-c3cc(Cl)ncc3F)c2Nc2ccccc2)C1 [Example 220, 2-(2-chloro-5-fluoropyridin-4-yl)-6,6-dimethyl-3-(phenylamino)-1,5,6,7-tetrahydro-4H-indol-4-one]
13.1 nM | CC1(C)CC(=O)c2c([nH]c(-c3ccnc4[nH]cnc34)c2Nc2ccccc2)C1 [Example 221, 2-(3H-imidazo[4,5-b]pyridin-7-yl)-6,6-dimethyl-3-(phenylamino)-1,5,6,7-tetrahydro-4H-indol-4-one]
28.5 nM | CC(C)C1CC(=O)c2c([nH]c(-c3ccnc(N)c3)c2Nc2ccc(F)c(F)c2)C1 (centres unmarked) [Example 222, 2-(2-aminopyridin-4-yl)-3-[(3,4-difluorophenyl)amino]-6-(propan-2-yl)-1,5,6,7-tetrahydro-4H-indol-4-one]
40.5 nM | CC1(C)CC(=O)c2c([nH]c(-c3ccnc(N)n3)c2Nc2ccccc2)C1 [Example 223, 2-(2-aminopyrimidin-4-yl)-6,6-dimethyl-3-(phenylamino)-1,5,6,7-tetrahydro-4H-indol-4-one]
248 nM | CC1(C)CC(=O)c2c([nH]c(-c3cc(N)ncn3)c2Nc2ccccc2)C1 [Example 224, 2-(6-aminopyrimidin-4-yl)-6,6-dimethyl-3-(phenylamino)-1,5,6,7-tetrahydro-4H-indol-4-one]
26.7 nM | CCC(=O)Nc1cc(-c2[nH]c3c(c2Nc2ccccc2)C(=O)CCC3)ccn1 [Example 225, N-{4-[4-oxo-3-(phenylamino)-4,5,6,7-tetrahydro-1H-indol-2-yl]pyridin-2-yl}propanamide]
20.4 nM | CCCC(=O)Nc1cc(-c2[nH]c3c(c2Nc2ccccc2)C(=O)CCC3)ccn1 [Example 226, N-{4-[4-oxo-3-(phenylamino)-4,5,6,7-tetrahydro-1H-indol-2-yl]pyridin-2-yl}butanamide]
260 nM | CC(C)(C)C(=O)Nc1cc(-c2[nH]c3c(c2Nc2ccccc2)C(=O)CCC3)ccn1 [Example 227, 2,2-dimethyl-N-{4-[4-oxo-3-(phenylamino)-4,5,6,7-tetrahydro-1H-indol-2-yl]pyridin-2-yl}propanamide]
56.7 nM | CC1(C(=O)Nc2cc(-c3[nH]c4c(c3Nc3ccccc3)C(=O)CCC4)ccn2)CC1 [Example 228, 1-methyl-N-{4-[4-oxo-3-(phenylamino)-4,5,6,7-tetrahydro-1H-indol-2-yl]pyridin-2-yl}cyclopropanecarboxamide]
19.4 nM | O=C1CCCc2[nH]c(-c3ccnc(NC(=O)C4CCC4)c3)c(Nc3ccccc3)c21 [Example 229, N-{4-[4-oxo-3-(phenylamino)-4,5,6,7-tetrahydro-1H-indol-2-yl]pyridin-2-yl}cyclobutanecarboxamide]
20 nM | CC(C)C(=O)Nc1cc(-c2[nH]c3c(c2Nc2ccccc2)C(=O)CCC3)ccn1 [Example 230, 2-methyl-N-{4-[4-oxo-3-(phenylamino)-4,5,6,7-tetrahydro-1H-indol-2-yl]pyridin-2-yl}propanamide]
29.9 nM | O=C(CC1CC1)Nc1cc(-c2[nH]c3c(c2Nc2ccccc2)C(=O)CCC3)ccn1 [Example 231, 2-cyclopropyl-N-{4-[4-oxo-3-(phenylamino)-4,5,6,7-tetrahydro-1H-indol-2-yl]pyridin-2-yl}acetamide]
34.7 nM | CC1(C)CC1C(=O)Nc1cc(-c2[nH]c3c(c2Nc2ccccc2)C(=O)CCC3)ccn1 (centres unmarked) [Example 232, 2,2-dimethyl-N-{4-[4-oxo-3-(phenylamino)-4,5,6,7-tetrahydro-1H-indol-2-yl]pyridin-2-yl}cyclopropanecarboxamide]

IC50 | Structure (SMILES)
43.9 nM | O=C(Cc1ccccc1)Nc1cc(-c2[nH]c3c(c2Nc2ccccc2)C(=O)CCC3)ccn1 [Example 233, N-{4-[4-oxo-3-(phenylamino)-4,5,6,7-tetrahydro-1H-indol-2-yl]pyridin-2-yl}-2-phenylacetamide]
61.6 nM | O=C(CCc1ccccc1)Nc1cc(-c2[nH]c3c(c2Nc2ccccc2)C(=O)CCC3)ccn1 [Example 235, N-{4-[4-oxo-3-(phenylamino)-4,5,6,7-tetrahydro-1H-indol-2-yl]pyridin-2-yl}-3-phenylpropanamide]
8.26 nM | O=C(CCCc1ccccc1)Nc1cc(-c2[nH]c3c(c2Nc2ccccc2)C(=O)CCC3)ccn1 [Example 236, N-{4-[4-oxo-3-(phenylamino)-4,5,6,7-tetrahydro-1H-indol-2-yl]pyridin-2-yl}-4-phenylbutanamide]
13.2 nM | CC1CC1C(=O)Nc1cc(-c2[nH]c3c(c2Nc2ccccc2)C(=O)CCC3)ccn1 (centres unmarked) [Example 237, 2-methyl-N-{4-[4-oxo-3-(phenylamino)-4,5,6,7-tetrahydro-1H-indol-2-yl]pyridin-2-yl}cyclopropanecarboxamide]
17.7 nM | O=C(Nc1cc(-c2[nH]c3c(c2Nc2ccccc2)C(=O)CCC3)ccn1)c1ccccc1 [Example 238, N-{4-[4-oxo-3-(phenylamino)-4,5,6,7-tetrahydro-1H-indol-2-yl]pyridin-2-yl}benzamide]
45.9 nM | O=C1CCCc2[nH]c(-c3ccnc(NC(=O)C4CC4c4ccccc4)c3)c(Nc3ccccc3)c21 (centres unmarked) [Example 239, N-{4-[4-oxo-3-(phenylamino)-4,5,6,7-tetrahydro-1H-indol-2-yl]pyridin-2-yl}-2-phenylcyclopropanecarboxamide]
6740 nM | CC(=O)N(C)c1cc(-c2[nH]c3c(c2Nc2ccccc2)C(=O)CC(C)(C)C3)ccn1 [Example 240, N-{4-[6,6-dimethyl-4-oxo-3-(phenylamino)-4,5,6,7-tetrahydro-1H-indol-2-yl]pyridin-2-yl}-N-methylacetamide]
40.7 nM | CC(F)C(=O)Nc1cc(-c2[nH]c3c(c2Nc2ccccc2)C(=O)CCC3)ccn1 (centres unmarked) [Example 241, 2-fluoro-N-{4-[4-oxo-3-(phenylamino)-4,5,6,7-tetrahydro-1H-indol-2-yl]pyridin-2-yl}propanamide]
182 nM | CC(C)(F)C(=O)Nc1cc(-c2[nH]c3c(c2Nc2ccccc2)C(=O)CCC3)ccn1 [Example 242, 2-fluoro-2-methyl-N-{4-[4-oxo-3-(phenylamino)-4,5,6,7-tetrahydro-1H-indol-2-yl]pyridin-2-yl}propanamide]
255 nM | CC(C)(CO)C(=O)Nc1cc(-c2[nH]c3c(c2Nc2ccccc2)C(=O)CCC3)ccn1 [Example 243, 3-hydroxy-2,2-dimethyl-N-{4-[4-oxo-3-(phenylamino)-4,5,6,7-tetrahydro-1H-indol-2-yl]pyridin-2-yl}propanamide]
31 nM | CSCC(=O)Nc1cc(-c2[nH]c3c(c2Nc2ccccc2)C(=O)CCC3)ccn1 [Example 244, 2-(methylsulfanyl)-N-{4-[4-oxo-3-(phenylamino)-4,5,6,7-tetrahydro-1H-indol-2-yl]pyridin-2-yl}acetamide]
84.4 nM | CC(C)(C#N)C(=O)Nc1cc(-c2[nH]c3c(c2Nc2ccccc2)C(=O)CCC3)ccn1 [Example 245, 2-cyano-2-methyl-N-{4-[4-oxo-3-(phenylamino)-4,5,6,7-tetrahydro-1H-indol-2-yl]pyridin-2-yl}propanamide]
60.2 nM | N#CC1(C(=O)Nc2cc(-c3[nH]c4c(c3Nc3ccccc3)C(=O)CCC4)ccn2)CC1 [Example 246, 1-cyano-N-{4-[4-oxo-3-(phenylamino)-4,5,6,7-tetrahydro-1H-indol-2-yl]pyridin-2-yl}cyclopropanecarboxamide]
81.3 nM | CC(C(=O)Nc1cc(-c2[nH]c3c(c2Nc2ccccc2)C(=O)CCC3)ccn1)C(F)(F)F (centres unmarked) [Example 247, 3,3,3-trifluoro-2-methyl-N-{4-[4-oxo-3-(phenylamino)-4,5,6,7-tetrahydro-1H-indol-2-yl]pyridin-2-yl}propanamide]
28.2 nM | CS(=O)(=O)CC(=O)Nc1cc(-c2[nH]c3c(c2Nc2ccccc2)C(=O)CCC3)ccn1 [Example 248, 2-(methylsulfonyl)-N-{4-[4-oxo-3-(phenylamino)-4,5,6,7-tetrahydro-1H-indol-2-yl]pyridin-2-yl}acetamide]
10 nM | O=C1CCCc2[nH]c(-c3ccnc(NC(=O)[C@H]4C[C@@H]4F)c3)c(Nc3ccccc3)c21 [Example 250, (R,S/S,R)-2-fluoro-N-{4-[4-oxo-3-(phenylamino)-4,5,6,7-tetrahydro-1H-indol-2-yl]pyridin-2-yl}cyclopropanecarboxamide]
10.5 nM | O=C1CCCc2[nH]c(-c3ccnc(NC(=O)[C@H]4C[C@@H]4F)c3)c(Nc3ccccc3)c21 [Example 251, (R,S/S,R)-2-fluoro-N-{4-[4-oxo-3-(phenylamino)-4,5,6,7-tetrahydro-1H-indol-2-yl]pyridin-2-yl}cyclopropanecarboxamide]
